Molecular target: canine TRPM8 (Canis lupus familiaris, UniProt Q1A7N1)
Experiment: In Vitro Canine TRPM8 Functional Assay (Ca2+ fluorescence, icilin activation)
Type: cell-based
Details: for inhibition at 0.2 µM / % Inh @ 0.2 (μM): compound at 0.2 μM, canine TRPM8, icilin activation; for inhibition at 0.2 µM: read-out: % Inh @ 0.2; for IC50: HEK293 cells stably expressing canine TRPM8, icilin activation, eight-point dose-response, read-out: IC50
In short: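 HEK293 cells stably expressing canine TRPM8 loaded with Calcium 3 dye; compound added and Ca2+ fluorescence monitored 5 min before icilin at a final level giving ~80% maximal response, read on FLIPR or FDSS. EC50 or IC50 from eight-point dose-response, quadruplicate wells per point.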

Sequence of canine TRPM8 (Q1A7N1 1-1104): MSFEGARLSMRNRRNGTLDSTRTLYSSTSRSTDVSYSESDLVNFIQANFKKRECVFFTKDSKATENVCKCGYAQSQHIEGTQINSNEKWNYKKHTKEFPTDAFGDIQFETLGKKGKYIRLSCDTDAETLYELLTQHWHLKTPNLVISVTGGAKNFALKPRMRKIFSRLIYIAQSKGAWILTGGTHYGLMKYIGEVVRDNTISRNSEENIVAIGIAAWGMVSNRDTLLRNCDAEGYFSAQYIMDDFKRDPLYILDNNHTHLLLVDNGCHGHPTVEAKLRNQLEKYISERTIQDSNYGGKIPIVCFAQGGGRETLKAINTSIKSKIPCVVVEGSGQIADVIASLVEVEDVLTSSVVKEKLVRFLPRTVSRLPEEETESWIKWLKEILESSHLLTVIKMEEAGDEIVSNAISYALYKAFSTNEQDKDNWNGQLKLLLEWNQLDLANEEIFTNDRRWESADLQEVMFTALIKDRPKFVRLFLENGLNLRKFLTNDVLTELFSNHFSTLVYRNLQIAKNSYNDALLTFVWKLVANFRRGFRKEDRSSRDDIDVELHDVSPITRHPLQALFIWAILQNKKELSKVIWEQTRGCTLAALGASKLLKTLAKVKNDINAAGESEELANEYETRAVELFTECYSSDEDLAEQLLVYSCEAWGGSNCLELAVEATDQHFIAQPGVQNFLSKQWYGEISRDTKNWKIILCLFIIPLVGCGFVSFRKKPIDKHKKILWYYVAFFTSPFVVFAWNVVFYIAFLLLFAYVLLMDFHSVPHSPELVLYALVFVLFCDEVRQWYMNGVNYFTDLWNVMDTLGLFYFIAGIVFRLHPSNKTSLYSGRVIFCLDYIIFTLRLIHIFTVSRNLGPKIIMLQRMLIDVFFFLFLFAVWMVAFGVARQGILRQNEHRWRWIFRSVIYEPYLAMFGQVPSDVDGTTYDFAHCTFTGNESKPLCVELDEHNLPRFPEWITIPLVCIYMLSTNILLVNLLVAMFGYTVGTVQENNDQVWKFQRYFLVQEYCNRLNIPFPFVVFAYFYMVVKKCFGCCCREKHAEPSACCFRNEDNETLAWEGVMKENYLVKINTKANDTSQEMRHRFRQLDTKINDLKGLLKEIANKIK

O=S(=O)(c1ccc(-c2nnn[nH]2)cc1)N(CCCCC(F)(F)F)c1sc2ccccc2c1Br [Compound 579, N-(3-Bromo-benzo[b]thiophen-2-yl)-N-(5,5,5-trifluoro-pentyl)-4-(1H-tetrazol-5-yl)-benzenesulfonamide] was tested, and the inhibition at 0.2 µM was 102%.
Work on O=S(=O)(c1ccc(-c2nnn[nH]2)cc1)N(CCCCC(F)(F)F)c1sc2ccccc2c1Cl [Compound 580, N-(3-Chloro-benzo[b]thiophen-2-yl)-N-(5,5,5-trifluoro-pentyl)-4-(1H-tetrazol-5-yl)-benzenesulfonamide] yielded an IC50 of 22.1 nM and an inhibition at 0.2 µM of 101%.
With O=S1NC(c2ccc(S(=O)(=O)N(CCCCC(F)(F)F)c3sc4ccccc4c3Br)cc2)=NO1 (stereo not drawn) [Compound 581, N-(3-Bromo-benzo[b]thiophen-2-yl)-N-(5,5,5-trifluoro-pentyl)-4-(3H-[1,2,3,5]oxathiadiazole-2-oxide)-benzenesulfonamide] the IC50 was 25.1 nM and the “% Inh @ 0.2 (μM)” value was 100%.
In the case of O=S1NC(c2ccc(S(=O)(=O)N(CCCCC(F)(F)F)c3sc4ccccc4c3Cl)cc2)=NO1 (stereo not drawn) [Compound 582, N-(3-Chloro-benzo[b]thiophen-2-yl)-N-(5,5,5-trifluoro-pentyl)-4-(3H-[1,2,3,5]oxathiadiazole-2-oxide)-benzenesulfonamide], the IC50 is reported as 50.3 nM and the “% Inh @ 0.2 (μM)” value is reported as 96%.
For O=c1[nH]c(-c2ccc(S(=O)(=O)N(CCCCC(F)(F)F)c3sc4ccccc4c3Br)cc2)no1 [Compound 583, N-(3-Bromo-benzo[b]thiophen-2-yl)-N-(5,5,5-trifluoro-pentyl)-4-(5-oxo-4,5-dihydro-[1,2,4]oxadiazol-3-yl)-benzenesulfonamide], the inhibition at 0.2 µM was 100%.
With O=c1[nH]c(-c2ccc(S(=O)(=O)N(CCCCC(F)(F)F)c3sc4ccccc4c3Cl)cc2)no1 [Compound 584, N-(3-Chloro-benzo[b]thiophen-2-yl)-N-(5,5,5-trifluoro-pentyl)-4-(5-oxo-4,5-dihydro-[1,2,4]oxadiazol-3-yl)-benzenesulfonamide] the IC50 was 15.9 nM and the inhibition at 0.2 µM was 100%.
Nc1ccc(S(=O)(=O)N(CCC(F)(F)F)c2sc3ccccc3c2Cl)cc1 [Compound 585, 4-Amino-N-(3-chloro-benzo[b]thiophen-2-yl)-N-(3,3,3-trifluoro-propyl)-benzenesulfonamide] gave an IC50 of 6.4 nM and an inhibition at 0.2 µM of 101%.
With Nc1ccc(S(=O)(=O)N(CCC(F)(F)F)c2cc3ccccc3s2)cc1Cl [Compound 586, 4-Amino-N-(benzo[b]thiophen-2-yl)-3-chloro-N-(3,3,3-trifluoro-propyl)-benzenesulfonamide] the IC50 was 34.6 nM and the inhibition at 0.2 µM was 100%.
Work on Nc1ccc(S(=O)(=O)N(CCC(F)(F)F)c2sc3ccccc3c2Br)cc1 [Compound 587, 4-Amino-N-(3-bromo-benzo[b]thiophen-2-yl)-N-(3,3,3-trifluoro-propyl)-benzenesulfonamide] yielded an IC50 of 3.9 nM and an inhibition at 0.2 µM of 100%.
Molecule Nc1ccc(S(=O)(=O)N(CCC(F)(F)F)c2sc3ccccc3c2Br)cc1Br [Compound 588, 4-Amino-3-bromo-N-(3-bromo-benzo[b]thiophen-2-yl)-N-(3,3,3-trifluoro-propyl)-benzenesulfonamide] has an IC50 of 12.1 nM and an inhibition at 0.2 µM of 101%.
Cc1c(N(CCC2CC2)S(=O)(=O)c2ccc(C(=O)O)cc2F)sc2ccccc12 [Compound 589, N-(3-Methyl-benzo[b]thiophen-2-yl)-N-(2-cyclopropyl-ethyl)-2-fluoro-4-carboxy-benzenesulfonamide] gave an IC50 of 4.2 nM and an inhibition at 0.2 µM of 100%.
Work on Cc1c(N(CCC(F)(F)F)S(=O)(=O)c2ccc(C(=O)O)cc2F)sc2ccccc12 [Compound 590, N-(3-Methyl-benzo[b]thiophen-2-yl)-N-(3,3,3-trifluoro-propyl)-2-fluoro-4-carboxy-benzenesulfonamide] yielded an IC50 of 6.1 nM and an inhibition at 0.2 µM of 101%.
Cc1c(N(CCCCC(F)(F)F)S(=O)(=O)c2ccc(C(=O)O)cc2F)sc2ccccc12 [Compound 591, N-(3-Methyl-benzo[b]thiophen-2-yl)-N-(5,5,5-trifluoro-pentyl)-2-fluoro-4-carboxy-benzenesulfonamide] gave an IC50 of 4.2 nM and an inhibition at 0.2 µM of 101%.
